From PubChem BioAssay (NCI)
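Grown in 96-well plates, cells were treated for 48 hours with each compound at five concentrations. Insufficient inhibition: endpoint recorded as highest concentration tested. GI50 is the concentration that inhibits growth by half. At the TGI there is no net growth.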

Columns and labels:
Experiment in all cases: NCI-60 cell line screen, 48 h
[1] = tested on: CCRF-CEM leukemia
[2] = tested on: HOP-92 NSCLC
[3] = tested on: HT29 colon
[4] = tested on: IGROV1 ovarian
[5] = tested on: K-562 leukemia
[6] = tested on: LOX IMVI melanoma
[7] = tested on: M14 melanoma
[8] = tested on: OVCAR-5 ovarian
[9] = tested on: OVCAR-8 ovarian
[10] = tested on: RPMI-8226 leukemia

SMILES	TGI [1] [µM]	TGI [2] [µM]	TGI [3] [µM]	TGI [4] [µM]	TGI [5] [µM]	TGI [6] [µM]	TGI [7] [µM]	TGI [8] [µM]	TGI [9] [µM]	TGI [10] [µM]	GI50 [1] [µM]	GI50 [2] [µM]	GI50 [3] [µM]	GI50 [4] [µM]	GI50 [5] [µM]	GI50 [6] [µM]	GI50 [7] [µM]	GI50 [8] [µM]	GI50 [9] [µM]	GI50 [10] [µM]
Nc1c(-c2cn(Cc3ccccc3)c3ccccc23)[n+]([O-])c2ccccc2[n+]1[O-]	> 100	43.1	> 100	> 100	> 100	> 100	74.3	> 100	> 100	> 100										
CCN(CC)CCNc1ccc(C)c2sc3cc(Cl)ccc3c(=O)c12	3.36	2.24	3.48	4.05	3.44	3.01	3.4	3.1	3.49	3.86	1.44	0.665	1.94	1.83	1.64	1.58	1.8	1.61	1.9	1.79
CCOC(=O)C1=C(C)N=c2s/c(=C\c3ccccc3O)c(=O)n2C1c1ccc(OC)c2ccccc12 (stereo not given)	> 100	35.9	25.1	75	67.2	5.65		> 100	22	31.2	23.2	16.3	8.29	21.4	11.4	2.44		17.1	5.35	5.39
COC(=O)[C@@H](C)C[C@H](Cc1cn(C)c2ccccc12)NC(=O)c1csc([C@@H](C[C@H](C(C)C)N(C)C(=O)[C@@H](NC(=O)[C@H]2CCCCN2C)C(C)C)OC(C)=O)n1	> 16.7	4.02	> 6.31	> 16.7	> 16.7	> 16.7	0.645	> 16.7	> 16.7	> 16.7	0.00779	0.0163	0.00632	0.0289	0.00547	0.011	0.0121	0.0671	0.0302	0.00776
C=CC(=O)NCCSCCCOC1(C(=O)O)CC(O)C(NC(C)=O)C(C(O)C(O)CO)O1 (stereo not given)		> 100	> 100	> 100	> 100	> 100	> 100	> 100	> 100	> 100										
O=C(c1ccco1)c1nc2cc(C(F)(F)F)ccc2nc1C(F)(F)F		> 100	> 100	> 100	> 100	> 100	> 100	> 100	> 100	> 100		27.2	> 100	> 100	> 100	> 100	> 100	> 100	> 100	49.8
O=C1c2[nH]cc(CNC3CN4CCC3CC4)c2C(=O)c2c1c(O)c1ccccc1c2O (stereo not given)	1.56		38.3	3.84	12.1	2.31	11.7	3.78	> 100	4.15	0.141	1.1	12.5	1.33	0.238	1.05	3.11	2.01	17.6	1.46
O=S(=O)([O-])c1ccc(N=Cc2ccccc2[O-])cc1.O=S(=O)([O-])c1ccc(N=Cc2ccccc2[O-])cc1.[O]=[U+2]=[O]	> 100	> 100	> 100	> 100	> 100	> 100	> 100	> 100	> 100	> 100	> 100	> 100	> 100	83.8	> 100	> 100	> 100	> 100	> 100	> 100
CC[C@H]1CN2CCc3cc(OC)c(OC)cc3C2C[C@@H]1CC1NCCc2cc(OC)c(OC)cc21 (stereo not given in full)	0.204	0.0464	0.0479	0.407	0.0779	0.0224	0.0487	0.645	0.18	0.128	0.0186				0.0137					
Cc1cc([N+](=O)[O-])ccc1Sc1c2ccccc2nc2cc(Cl)ccc12	> 100	76.6		> 100	> 100	86.8	> 100	> 100	57.3											
COC(=O)/C(=N\NC(N)=O)C(C(=O)C(=O)Nc1ccccc1OC)c1nc2ccc([N+](=O)[O-])cc2[nH]c1=O (stereo not given)	> 100	> 100	> 100	> 100	> 100	> 100	> 100	> 100	> 100	> 100										
COc1ccc(N=Cc2c(O)ccc3c2oc2cc(Cl)c(O)c(Cl)c23)cc1	31.8	32.6	37.8	43.3	49.7	53.4	61.2	38.9	45.9	30.2	4.5	6.09	16.2	14.7	5.63	15.1	20.9	17.5	15	4.83
CCC(CC)c1nc(Nc2ccc(C(=O)OC)cc2)c2ccccc2n1	48.9	> 26.4		28.5	> 31.6	31.7	21.6	> 50	> 31.4	22.9	6.64	18.6		11.6	7.39	11.1	10	17.9	12.9	5.08
CC(=O)Nc1ccc(/C=c2\sc3nnc(CCC(=O)Nc4ccccc4Cl)n3c2=O)cc1	42.9	57.7	> 100	> 100	68.3	34.5	35.8	> 100	> 10	45.2										
COc1ccc(OC(C)=O)c2c1CCC=CC2=O	17.1	7.49	33.7	34.4	18.6	17.5	19.7	31	31.4	3.96										
COC(=O)C(Cc1nc2ccccc2[nH]c1=O)/C(=N\NC(C)(C)C)C(=O)Nc1c(C)cc(Br)cc1C (stereo not given)	57.3	45.5	> 100	> 100	> 100	40.7	49.3	> 100	54.2	> 100										
CC12OOC(c3ccccc31)c1c2ccc2ccccc12 (stereo not given)	2.8	9.94	6.02	3.67	3.58	6.41	22.6	33.6	20.9	6.24										
COC(=O)C(=O)C(C(=O)C(=O)Nc1cccc(C(C)=O)c1)c1nc2ccc([N+](=O)[O-])cc2[nH]c1=O (stereo not given)	> 100	> 100	> 100	> 100	> 100	> 100	> 100	> 100	> 100	> 100										
N#Cc1c(NC(=O)NCc2ccccc2)sc2c1CCCC2	> 100	71	> 100	> 100	> 100	> 100	> 100	> 100	> 100	> 100	0.459	1.79	0.392	0.749	0.43	0.643	0.421	2.39	2.29	0.538
CCOC(=O)c1ccc(Nc2sc(C(=O)c3ccc(Br)cc3)c(N)c2C#N)cc1	> 100	> 100	> 100	> 100	> 100	> 100	> 100	> 100	> 100	> 72.3	1.43	0.884	0.447		0.513	1.64	1.27	5.66	6.91	2.57
O=C(O)/C=C/C(=O)N1Cc2cc3ccccc3nc2C1		> 100	> 100	> 100	> 100	> 100	> 100	> 100	> 100	> 100										
C#CCNC(=O)N(CC#C)N=O	> 100	> 100	> 100	> 100	> 100	> 100	> 100	> 100	> 100											
Cn1cc(C2=C(c3ccccc3[N+](=O)[O-])C(=O)NC2=O)c2ccccc21		16.6	12.4	> 19.5	> 25	> 25	> 20.9	> 25	> 25	15.2		6.08	1.81	6.9	2.14	3.13	6.32	8.64	6.07	5.93
COC1=CC(c2ccc[nH]2)=N/C1=C\c1[nH]c(C)c(CC(=O)OCc2ccccc2)c1CCC(=O)OCc1ccccc1	2.29	0.809	2.5	2.55		1.03	0.573	6.12	1.36	0.76	0.229	0.231	0.287	0.4		0.284	0.223	1.26	0.32	0.234
COc1cc(/C=C2\C[C@H]3[C@@H]4CC=C5C[C@@H](O)CC[C@]5(C)[C@H]4CC[C@]3(C)[C@H]2O)ccc1OCCN1CCCC1		17.1	> 50	> 50	16.5	> 50	18.3	19.8	27.2	25.5		8.26	13.2	17.5	6.86	17.9	8.16	8.57	13.5	5.53
NC1=CC(=O)c2cccnc2C1=O	4.88	3.39	14.6	3.29		2.69	3.24	4.72	4.2	4.58	1.19	1.71	3.48	1.28		0.981	1.7	2.05	1.66	1.81
C=C1CC2CCCC12C=O (stereo not given)	> 10	> 10	> 10	> 10	> 10	> 10	> 10		> 10	> 10										
C[C@]12CCc3nc(Nc4cccc(O)c4)sc3C1=CC[C@@H]1[C@@H]2CC[C@]2(C)/C(=N\NC(N)=S)CC[C@@H]12	> 100	7.6	3.73	6.25	> 100	2.85	5	7.77	10.9		1.97	2.02	1.52	2.31	2.15	1.52	1.96	2.6	2.57	
O=C(C=C1SCCS1)/C=C\c1ccc(Cl)cc1	> 100	> 100	> 100	> 100	> 100	> 100	> 100		> 100	> 100										
CC[C@@H]1[C@@H](C)O[C@@](O)([C@@H](C)[C@H](O)[C@H](C)[C@H]2OC(=O)/C=C/C=C/[C@H](C)[C@@H]([C@@H](C)[C@@H](O)[C@H](C)[C@@]3(O)C[C@@H](O[C@H]4C[C@@H](O)[C@H](O)C(C)O4)[C@H](CC)[C@@H](C)O3)OC(=O)/C=C/C=C/[C@@H]2C)C[C@H]1O[C@@H]1C[C@@H](O)[C@H](O)C(C)O1 (stereo not given in full)		0.125	0.389	0.241	0.378	0.117	0.142	0.316	0.557	0.153		0.0381	0.109	0.0903	0.116	0.0611	0.0653	0.0839	0.138	0.0643
